According to patent US10961215B2, “N-aryl and N-heteroaryl piperidine derivatives as liver X receptor beta agonists, compositions, and their use” (Merck Sharp & Dohme Corp., priority 2016, dated 2021):

Key:
[1] = molecular target: T1, GST tagged LXRbeta LBD (ligand binding domain) (Homo sapiens, UniProt P55055); experiment: LanthaScreen TR-FRET Liver X Receptor Coactivator Assay, LXR beta-LBD (co-activator recruitment; IP and % Emax relative to T0901317); format: biochemical; details: for EC50: Inflection Point of co-activator recruitment, LXR beta-LBD, TR-FRET; for Emax / LXR beta actiivty at max dose (%): efficacy at max dose in relation to reference T0901317, LXR beta-LBD; for Emax: read-out: LXR beta actiivty at max dose (%)
T1 construct: purchased Invitrogen pv4658.pps
T1 sequence (P55055 222-460 limits assumed): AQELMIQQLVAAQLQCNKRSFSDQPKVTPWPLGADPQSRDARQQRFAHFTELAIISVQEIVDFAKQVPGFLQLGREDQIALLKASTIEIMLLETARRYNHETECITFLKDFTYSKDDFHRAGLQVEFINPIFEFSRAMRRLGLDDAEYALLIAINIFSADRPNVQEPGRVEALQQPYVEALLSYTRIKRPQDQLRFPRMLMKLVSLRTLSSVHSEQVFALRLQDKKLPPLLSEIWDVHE
Experimental: (§1) Potency (Inflection Point, IP) and efficacy (Emax) are evaluated via compound-induced co-activator recruitment to glutathione-S-transferase (GST) tagged LXRbeta and LXRalpha LBD (ligand binding domain) proteins in relation to reference dual agonist compound T0901317 (N-(2,2,2-Trifluoroethyl)-N-[4-[2,2,2-trifluoro-1-hydroxy-1-(trifluoromethyl)ethyl]phenyl]benzenesulfonamide) using the LanthaScreen™ TR-FRET Liver X Receptor Coactivator Assays according to manufacturer's instructions (Invitrogen catalog number pv4658.pps and pv4655). While running the LanthaScreen™ TR-FRET Liver X Receptor Coactivator Assay, LXR alpha-LBD or LXR beta-LBD was added to ligand test compounds followed by addition of a mixture of a fluorescein-labelled coactivator peptide and terbium-conjugated anti-GST antibody. After an incubation period at room temperature, TR-FRET (time-resolved fluorescence resonance energy transfer) was measured using a filter-based instrument capable of TR-FRET, e.g. PerkinElmer Envision.

[2] = molecular target: T2, GST tagged LXRalpha LBD (ligand binding domain) (Homo sapiens, UniProt Q13133); experiment: LanthaScreen TR-FRET Liver X Receptor Coactivator Assay, LXR alpha-LBD (co-activator recruitment; IP and % Emax relative to T0901317); format: biochemical; details: for LXR alpha IP (nM) / EC50: Inflection Point of co-activator recruitment, LXR alpha-LBD, TR-FRET; for Emax / LXR alpha actiivty at max dose (%): efficacy at max dose in relation to reference T0901317, LXR alpha-LBD; for Emax: read-out: LXR alpha actiivty at max dose (%)
T2 construct: purchased Invitrogen pv4655
T2 sequence (Q13133 209-447 limits assumed): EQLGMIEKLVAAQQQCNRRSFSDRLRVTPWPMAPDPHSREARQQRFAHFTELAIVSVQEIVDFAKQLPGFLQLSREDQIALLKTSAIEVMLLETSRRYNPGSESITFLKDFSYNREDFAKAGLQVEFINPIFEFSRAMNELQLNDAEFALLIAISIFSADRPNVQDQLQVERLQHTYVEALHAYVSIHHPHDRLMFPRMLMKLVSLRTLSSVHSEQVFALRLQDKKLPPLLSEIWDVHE
Experimental: as §1

Row | SMILES | EC50 [1] | Emax [1] | LXR alpha IP (nM) [2] | Emax [2] | LXR beta actiivty at max dose (%) [1] | EC50 [2] | LXR alpha actiivty at max dose (%) [2] | activity (stated in words in the synthesis text) ([1]; cis/trans isomers of Example 11-1 separated by Prep-HPLC (RT=1.95 min, 1.98 min), assay not given)
1 | COc1cccc([C@@](O)(C(=O)N(C)C[C@H](C)CC2CCN(c3ccc(C(=O)N(C)C)c(Cl)n3)CC2)C(F)(F)F)c1 (single isomer, unassigned) [Example 3-1] | 25 nM | 70% | No IP | 16% | – | – | – | –
2 | COc1cccc([C@@](O)(C(=O)N(C)CC(C)CC2CCN(c3ccc(C(=O)N(C)C)c(Cl)n3)CC2)C(F)(F)F)c1 (single isomer, unassigned) [Example 3-2] | 53 nM | 81% | No IP | 0% | – | – | – | –
3 | CN(C)C(=O)c1ccc(N2CCC(CCCN(C)C(=O)C(O)(c3ccccc3)C(F)(F)F)CC2)cc1Cl (single isomer, unassigned) [Example 4-4, 2-chloro-N,N-dimethyl-4-(4-(3-(3,3,3-trifluoro-2-hydroxy-N-methyl-2-phenylpropanamido)propyl)piperidin-1-yl)benzamide] | 45 nM | – | – | 14% | 59% | 1580 nM | – | –
4 | CN(C)C(=O)c1ccc(N2CCC(CCCN(C)C(=O)C(O)(c3ccccc3)C(F)(F)F)CC2)cc1Cl (single isomer, unassigned) [Example 4-6, 2-chloro-N,N-dimethyl-4-(4-(3-(3,3,3-trifluoro-2-hydroxy-N-methyl-2-phenylpropanamido)propyl)piperidin-1-yl)benzamide] | 77 nM | – | – | – | 73% | 677 nM | 15% | –
5 | CN(C)C(=O)c1ccc(N2CCC(CCCN(C)C(=O)C(O)(c3ccccc3)C(F)(F)F)CC2)cc1Cl (single isomer, unassigned) [Example 4-7, 2-chloro-N,N-dimethyl-4-(4-(3-(3,3,3-trifluoro-2-hydroxy-N-methyl-2-phenylpropanamido)propyl)piperidin-1-yl)benzamide] | 369 nM | – | No IP | – | 48% | – | 12% | –
6 | COc1cccc([C@@](O)(C(=O)N(C)C2CC(CC3CCN(c4ccc(C(=O)N(C)C)c(C)n4)CC3)C2)C(F)(F)F)c1 (single isomer, unassigned) [first eluting peak] | – | – | – | – | – | – | – | not active
7 | CN(C)C(=O)c1ccc(N2CCC(CCCN(C)C(=O)[C@](O)(c3ccccc3)C(F)(F)F)CC2)nc1Cl [Example 1-1, (R)-2-chloro-N,N-dimethyl-6-(4-(3-(3,3,3-trifluoro-2-hydroxy-N-methyl-2-phenylpropanamido)propyl)piperidin-1-yl)nicotinamide] | – | – | – | – | 78% | 752 nM | 27% | –
8 | CC(C)[C@](O)(C(=O)N(C)CCCC1CCN(c2ccc(C(=O)N(C)C)c(Cl)n2)CC1)c1ccccc1 [Example 1-2, (R)-2-chloro-6-(4-(3-(2-hydroxy-N,3-dimethyl-2-phenylbutanamido)propyl)piperidin-1-yl)-N,N-dimethylnicotinamide] | 259 nM | 68% | No IP | 16% | – | – | – | –
9 | CC(C)[C@@](O)(C(=O)N(C)CCCC1CCN(c2ccc(C(=O)N(C)C)c(Cl)n2)CC1)C(F)(F)F [Example 1-3, (R)-2-chloro-6-(4-(3-(2-hydroxy-N,3-dimethyl-2-(trifluoromethyl)butanamido)propyl)piperidin-1-yl)-N,N-dimethylnicotinamide] | 159 nM | 102% | – | 40% | – | 1780 nM | – | –
10 | CC(C)[C@](O)(C(=O)N(C)CCCC1CCN(c2ccc(C(=O)N(C)C)c(Cl)n2)CC1)C(F)(F)F [Example 1-4, (S)-2-chloro-6-(4-(3-(2-hydroxy-N,3-dimethyl-2-(trifluoromethyl)butanamido)propyl)piperidin-1-yl)-N,N-dimethylnicotinamide] | 82 nM | 92% | – | 52% | – | 1180 nM | – | –
11 | CN(C)C(=O)c1ccc(N2CCC(CCCN(C)C(=O)[C@@]3(c4ccccc4F)CCCO3)CC2)nc1Cl [Example 1-5, (S)-2-chloro-6-(4-(3-(2-(2-fluorophenyl)-N-methyl-tetrahydrofuran-2-carboxamido)propyl)piperidin-1-yl)-N,N-dimethylnicotinamide] | 55 nM | 82% | No IP | 6% | – | – | – | –
12 | CN(C)C(=O)c1ccc(N2CCC(CCCN(C)C(=O)[C@]3(c4ccccc4F)CCCO3)CC2)nc1Cl [Example 1-6, (R)-2-chloro-6-(4-(3-(2-(2-fluorophenyl)-N-methyl-tetrahydrofuran-2-carboxamido)propyl)piperidin-1-yl)-N,N-dimethylnicotinamide] | 64 nM | 80% | – | 27% | – | 1460 nM | – | –
13 | CN(C)C(=O)c1ccc(N2CCC(CCCN(C)C(=O)[C@@]3(C(F)(F)F)CCCO3)CC2)nc1Cl [Example 1-7, (R)-2-chloro-N,N-dimethyl-6-(4-(3-(N-methyl-2-(trifluoromethyl)-tetrahydrofuran-2-carboxamido)propyl)piperidin-1-yl)nicotinamide] | 144 nM | 94% | – | 57% | – | 2520 nM | – | –
14 | CN(C)C(=O)c1ccc(N2CCC(CCCN(C)C(=O)[C@]3(C(F)(F)F)CCCO3)CC2)nc1Cl [Example 1-8, (S)-2-chloro-N,N-dimethyl-6-(4-(3-(N-methyl-2-(trifluoromethyl)-tetrahydrofuran-2-carboxamido)propyl)piperidin-1-yl)nicotinamide] | 106 nM | 81% | – | 51% | – | 1770 nM | – | –
15 | COc1cccc([C@@](O)(C(=O)N(C)CCCC2CCN(c3ccc(C(=O)N(C)C)c(Cl)n3)CC2)C(F)(F)F)c1 [Example 1-9, (R)-2-chloro-N,N-dimethyl-6-(4-(3-(3,3,3-trifluoro-2-hydroxy-2-(3-methoxyphenyl)-N-methylpropanamido)propyl)piperidin-1-yl)nicotinamide] | 46 nM | 69% | No IP | 4% | – | – | – | –

Results, then the compound that gave them:

Row | EC50 [1] | Emax [1] | LXR alpha IP (nM) [2] | Emax [2] | LXR beta actiivty at max dose (%) [1] | EC50 [2] | LXR alpha actiivty at max dose (%) [2] | activity (stated in words in the synthesis text) ([1]; cis/trans isomers of Example 11-1 separated by Prep-HPLC (RT=1.95 min, 1.98 min), assay not given) | SMILES
16 | 22 nM | 64% | – | 42% | – | 504 nM | – | – | CNC(=O)c1ccc(N2CCC3(CC2)C[C@H]3CCN(C)C(=O)[C@](O)(c2ccccc2)C(F)(F)F)cc1Cl (single isomer, unassigned) [Example 7-7]
17 | 727 nM | 42% | No IP | 0% | – | – | – | – | COc1cccc([C@@](O)(C(=O)N(C)C2CC(CC3CCN(c4ccc(C(=O)N(C)C)c(C)n4)CC3)C2)C(F)(F)F)c1 (single isomer, unassigned) [Example 11-1]
18 | 20 nM | 64% | – | 26% | – | 826 nM | – | – | CN(C)C(=O)c1ccc(N2CCC3(CC2)CC3CCN(C)C(=O)[C@](O)(c2cccc(OC(F)(F)F)c2)C(F)(F)F)cc1Cl (stereo in doubt) [Example 7-4, 2-chloro-N,N-dimethyl-4-((R)-1-(2-((R)-3,3,3-trifluoro-2-hydroxy-N-methyl-2-(3-(trifluoromethoxy)phenyl)propanamido)ethyl)-6-azaspiro[2.5]octan-6-yl) benzamide]
19 | 76 nM | 58% | – | 27% | – | 688 nM | – | – | COc1cccc([C@@](O)(C(=O)N(C)CCC2CC23CCN(c2ccc(C(=O)NC(C)C)c(Cl)n2)CC3)C(F)(F)F)c1 (stereo in doubt) [Example 7-19, 2-chloro-N-isopropyl-6-((R)-1-(2-((R)-3,3,3-trifluoro-2-hydroxy-2-(3-methoxyphenyl)-N-methylpropanamido)ethyl)-6-azaspiro[2.5]octan-6-yl)nicotinamide]
20 | 36 nM | 60% | – | 40% | – | 1180 nM | – | – | CNC(=O)c1ccc(N2CCC3(CC2)CC3CCN(C)C(=O)[C@](O)(c2cccc(OC)c2)C(F)(F)F)nc1Cl (stereo in doubt) [Example 7-20, 2-chloro-N-methyl-6-((R)-1-(2-((R)-3,3,3-trifluoro-2-hydroxy-2-(3-methoxyphenyl)-N-methylpropanamido)ethyl)-6-azaspiro[2.5]octan-6-yl)nicotinamide]
